Source: patent publication US8450305B2, “Macrocyclic compounds useful as inhibitors of kinases and HSP90” (Universite de Strasbourg, priority 2006, dated 2013)
Read-outs that look alike come from different tables or passages of the source.

Legend:
HSP90 = HSP90 (Homo sapiens, UniProt P07900); assay: HSP90 affinity, competition assay with geldanamycin; assay type: binding
panel of 24 kinase = assay: Radiometric protein kinase assay (33PanQinase), panel of 24 kinases; assay type: biochemical, human; conditions: at 10 μM
Source text: (§1) All protein kinases were expressed in Sf9 insect cells as human recombinant GST-fusion proteins or His-tagged proteins by means of the baculovirus expression system. Kinases were purified by affinity chromatography using either GSH-agarose (Sigma) or Ni-NTH-agarose (Qiagen). The purity of each kinase was checked by SDS-PAGE/silver staining and the identity of each kinase was verified by western blot analysis with kinase specific antibodies or by mass spectroscopy.
A radiometric protein kinase assay (^33PanQinase® Activity Assay) was used for measuring the kinase activity of the 24 protein kinases.
(§2) The assay for all enzymes contained 60 mM HEPES-NaOH, pH 7.5, 3 mM MgCl2, 3 mM MnCl2, 3 μM Na-orthovanadate, 1.2 mM DTT, 50 μg/ml PEG20000, 1 μM [γ-^33P]-ATP (approx. 5×10^05 cpm per well).
(§3) The reaction cocktails were incubated at 30° C. for 80 minutes. The reaction was stopped with 50 μl of 2% (v/v) H3PO4, plates were aspirated and washed two times with 200 μl of 0.9% (w/v) NaCl or 200 μl H2O. Incorporation of ^33Pi was determined with a microplate scintillation counter (Microbeta Trilux, Wallac).
(§4) The median value of the counts in column 1 (n=8) of each assay plate was defined as “low control”. This value reflects unspecific binding of radioactivity to the plate in the absence of a protein kinase but in the presence of the substrate. The median value of the counts in column 7 of each assay plate (n=8) was taken as the “high control”, i.e. full activity in the absence of any inhibitor. The difference between high and low control was taken as 100% activity.
(§5) As part of the data evaluation the low control value from a particular plate was subtracted from the high control value as well as from all 80 “compound values” of the corresponding plate. The residual activity (in %) for each well of a particular plate was calculated by using the following formula: Res. Activity (%)=100×[(cpm of compound−low control)/(high control−low control)]

SK-BR-3 tumor cells = assay: Cytotoxicity, MTS assay, SK-BR-3; assay type: cell-based; conditions: Homo sapiens, 72 hours
Method: (§6) Tumor cells were grown as adherent monolayers at 37° C. in a humidified atmosphere (5% CO2, 95% air). The culture medium was RPMI 1640 containing 2 mM L-glutamine (Ref BE12-702F, Cambrex, Verviers, Belgium) and supplemented with 10% fetal bovine serum (Ref DE14-801E, Cambrex). For experimental use, the adherent tumour cells were detached from the culture flask by a 5-minute treatment with trypsin-versene (Ref O2-007E, Cambrex), diluted in Hanks' medium without calcium or magnesium (Ref BE10-543F, Cambrex) and neutralized by addition of complete culture medium. Before use, cells were counted in a hemocytometer and their viability were assessed by 0.25% trypan blue exclusion. Mycoplasma detection was performed using the MycoAlert® Mycoplasma Detection Kit (Ref LT07-318, Cambrex) in accordance with the manufacturer instructions. The MycoAlert®Assay is a selective biochemical test that exploits the activity of mycoplasmal enzymes. The viable mycoplasma are lysed and the enzymes react with the MycoAlert® substrate catalyzing the conversion of ADP to ATP. By measuring the level of ATP in a sample both before and after the addition of the MycoAlert® substrate a ratio can be obtained which is indicative of the presence or absence of mycoplasma. The mycoplasma test was assayed in duplicate from the culture supernatants of the cell lines and compared to negative and positive controls (MycoAlert® Assay Control Set, Ref LT07-518, Cambrex) (Internal Standard Operating Procedure No TEC-007/002). Both HCC1954 and SK-BR-3 tumour cells (5,000 cells per well) were plated in 96-well flat-bottom microtitration plates (Ref 167008, Nunc, Dutscher, Brumath, France) and incubated at 37° C. for 24 hours before treatment in 190 μl of drug-free culture medium supplemented with 10% FBS. Both HCC1954 and SK-BR-3 tumour cell lines were incubated for 72 hours with […], in ¼ dilution steps, of the test substances (ranging from […]) to be tested as well as paclitaxel (ranging from 10^−7 to 10^−12 M). The cells (190 μl) will be incubated in a 200 μl final volume of culture medium supplemented with 10% FBS containing test substances at 37° C. under 5% CO2. One experiment is performed, each concentration being issued from quadruplicate. Control cells are treated with corresponding vehicle alone. At the end of treatments, the cytotoxic activity is evaluated by a MTS assay. […] Like MTT, MTS is bioreduced by cells into a formazan product that is directly soluble in culture medium without processing, unlike MTT.
(§7) At the end of the cells treatment, 40 μl of a 0.22 μm filtered freshly combined solution of MTS (20 ml at 2 mg/ml, Ref G1111A, Promega, Charbonnières, France) and PMS (1 ml at 0.92 mg/ml, Ref P9625, Sigma) in Dulbecco's Phosphate Buffered Saline (DPBS, Ref 17-513F, Cambrex), were added in each well. Culture plates were incubated for 2 h at 37° C. Absorbency (OD) will be measured at 490 nm in each well using VICTOR^3™ 1420 multilabeled counter (Wallac, PerkinElmer, Courtaboeuf, France).

HCC1954 tumor cells = assay: Cytotoxicity, MTS assay, HCC1954; assay type: cell-based; conditions: Homo sapiens, 72 hours
Method: as §6, §7

IGF1-R = biological target: T1, IGF1-R (Homo sapiens, UniProt P08069); assay: Radiometric protein kinase assay, IGF1-R; assay type: biochemical; conditions: 1 μM ATP; read-out: Inhibitory activity (IC50:μM) IGF1-R
T1 construct: host or cells: Sf9 insect cells (baculovirus)
T1 sequence (P08069 31-1367): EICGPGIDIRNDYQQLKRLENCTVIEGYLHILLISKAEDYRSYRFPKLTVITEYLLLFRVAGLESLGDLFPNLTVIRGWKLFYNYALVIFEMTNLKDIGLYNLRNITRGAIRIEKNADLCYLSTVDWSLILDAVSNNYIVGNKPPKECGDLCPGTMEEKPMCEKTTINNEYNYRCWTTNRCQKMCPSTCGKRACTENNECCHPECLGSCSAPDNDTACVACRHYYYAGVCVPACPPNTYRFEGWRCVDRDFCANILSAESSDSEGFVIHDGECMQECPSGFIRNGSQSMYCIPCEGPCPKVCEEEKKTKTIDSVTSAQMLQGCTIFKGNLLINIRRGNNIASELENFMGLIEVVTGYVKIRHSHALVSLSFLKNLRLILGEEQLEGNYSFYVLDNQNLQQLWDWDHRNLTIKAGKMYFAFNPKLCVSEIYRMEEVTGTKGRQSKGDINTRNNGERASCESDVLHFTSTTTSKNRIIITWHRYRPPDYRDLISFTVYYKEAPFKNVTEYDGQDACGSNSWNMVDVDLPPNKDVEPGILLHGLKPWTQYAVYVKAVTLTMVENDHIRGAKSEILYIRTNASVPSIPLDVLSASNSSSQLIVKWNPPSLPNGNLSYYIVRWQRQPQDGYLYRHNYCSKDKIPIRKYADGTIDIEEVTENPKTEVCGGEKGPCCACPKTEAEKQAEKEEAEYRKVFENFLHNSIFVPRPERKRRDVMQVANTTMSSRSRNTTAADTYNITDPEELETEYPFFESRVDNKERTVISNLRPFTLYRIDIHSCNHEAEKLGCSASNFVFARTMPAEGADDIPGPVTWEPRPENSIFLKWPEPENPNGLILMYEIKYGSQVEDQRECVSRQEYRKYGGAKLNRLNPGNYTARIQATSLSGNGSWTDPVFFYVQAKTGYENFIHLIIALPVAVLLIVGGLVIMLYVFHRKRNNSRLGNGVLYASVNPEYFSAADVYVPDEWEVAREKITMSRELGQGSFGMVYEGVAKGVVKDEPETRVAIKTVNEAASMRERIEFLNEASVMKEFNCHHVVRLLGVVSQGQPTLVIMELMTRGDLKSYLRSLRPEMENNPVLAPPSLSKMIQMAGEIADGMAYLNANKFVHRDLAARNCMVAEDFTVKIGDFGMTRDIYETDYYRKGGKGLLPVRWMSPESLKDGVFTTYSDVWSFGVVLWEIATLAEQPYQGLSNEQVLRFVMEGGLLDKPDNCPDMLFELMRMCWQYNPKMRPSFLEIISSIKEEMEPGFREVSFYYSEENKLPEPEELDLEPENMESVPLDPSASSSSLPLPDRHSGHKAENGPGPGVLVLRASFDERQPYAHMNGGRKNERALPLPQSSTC
Source text: as §1
(§8) A radiometric protein kinase assay (^33PanQinase® Activity Assay) was used for measuring the kinase activity of the 24 protein kinases. All kinase assays were performed in 96-well FlashPlates™ from Perkin Elmer (Boston, Mass., USA) in a 50 μl reaction volume. The reaction cocktail was pipetted in 4 steps in the following order: • 20 μl of assay buffer • 5 μl of ATP solution (in H2O) • 5 μl of test compound (in 10% DMSO) • 10 μl of substrate/10 […] of enzyme solution (premixed)
as §2
(§9) For the 24 kinase assays, the following amounts of enzyme and substrate were used per well:
as §3, §4, §5
(§10) The residual activities for each concentration and the compound IC50 values were calculated using Quattro Workflow V2.1.0.0 (Quattro Research GmbH, Munich, Germany; www.quattro-research.com). The model used was “Sigmoidal response (variable slope)” with parameters “top” fixed at 100% and “bottom” at 0%.

[1] = rcm bond, Grubbs II, toluene, 2.0 mM, 80.0 °C
SRC = biological target: T2, SRC (Homo sapiens, UniProt P12931); assay: Radiometric protein kinase assay, SRC; assay type: biochemical; conditions: 1 μM ATP; read-out: Inhibitory activity (IC50:μM) SRC
T2 construct: host or cells: Sf9 insect cells (baculovirus)
T2 sequence (P12931 whole entry): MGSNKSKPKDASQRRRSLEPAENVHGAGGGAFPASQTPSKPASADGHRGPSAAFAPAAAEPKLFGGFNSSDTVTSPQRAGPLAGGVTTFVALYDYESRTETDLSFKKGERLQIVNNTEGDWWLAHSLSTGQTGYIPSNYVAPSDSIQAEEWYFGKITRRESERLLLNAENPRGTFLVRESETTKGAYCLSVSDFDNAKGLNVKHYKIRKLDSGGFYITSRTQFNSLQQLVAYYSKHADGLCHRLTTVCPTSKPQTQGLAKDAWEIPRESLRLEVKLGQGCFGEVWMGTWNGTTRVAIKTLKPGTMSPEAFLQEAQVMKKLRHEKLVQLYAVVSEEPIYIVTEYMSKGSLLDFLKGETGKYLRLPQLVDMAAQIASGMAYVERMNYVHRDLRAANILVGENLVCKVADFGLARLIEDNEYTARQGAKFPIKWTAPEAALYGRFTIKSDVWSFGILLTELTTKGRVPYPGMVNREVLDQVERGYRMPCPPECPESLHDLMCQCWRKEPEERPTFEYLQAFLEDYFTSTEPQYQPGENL
Source text: as §1, §8, §2, §9, §3, §4, §5, §10

EGF-R = biological target: T3, EGF-R (Homo sapiens, UniProt P00533); assay: Radiometric protein kinase assay, EGF-R; assay type: biochemical; conditions: 1 μM ATP; read-out: Inhibitory activity (IC50:μM) EGF-R
T3 construct: host or cells: Sf9 insect cells (baculovirus)
T3 sequence (P00533 25-1210): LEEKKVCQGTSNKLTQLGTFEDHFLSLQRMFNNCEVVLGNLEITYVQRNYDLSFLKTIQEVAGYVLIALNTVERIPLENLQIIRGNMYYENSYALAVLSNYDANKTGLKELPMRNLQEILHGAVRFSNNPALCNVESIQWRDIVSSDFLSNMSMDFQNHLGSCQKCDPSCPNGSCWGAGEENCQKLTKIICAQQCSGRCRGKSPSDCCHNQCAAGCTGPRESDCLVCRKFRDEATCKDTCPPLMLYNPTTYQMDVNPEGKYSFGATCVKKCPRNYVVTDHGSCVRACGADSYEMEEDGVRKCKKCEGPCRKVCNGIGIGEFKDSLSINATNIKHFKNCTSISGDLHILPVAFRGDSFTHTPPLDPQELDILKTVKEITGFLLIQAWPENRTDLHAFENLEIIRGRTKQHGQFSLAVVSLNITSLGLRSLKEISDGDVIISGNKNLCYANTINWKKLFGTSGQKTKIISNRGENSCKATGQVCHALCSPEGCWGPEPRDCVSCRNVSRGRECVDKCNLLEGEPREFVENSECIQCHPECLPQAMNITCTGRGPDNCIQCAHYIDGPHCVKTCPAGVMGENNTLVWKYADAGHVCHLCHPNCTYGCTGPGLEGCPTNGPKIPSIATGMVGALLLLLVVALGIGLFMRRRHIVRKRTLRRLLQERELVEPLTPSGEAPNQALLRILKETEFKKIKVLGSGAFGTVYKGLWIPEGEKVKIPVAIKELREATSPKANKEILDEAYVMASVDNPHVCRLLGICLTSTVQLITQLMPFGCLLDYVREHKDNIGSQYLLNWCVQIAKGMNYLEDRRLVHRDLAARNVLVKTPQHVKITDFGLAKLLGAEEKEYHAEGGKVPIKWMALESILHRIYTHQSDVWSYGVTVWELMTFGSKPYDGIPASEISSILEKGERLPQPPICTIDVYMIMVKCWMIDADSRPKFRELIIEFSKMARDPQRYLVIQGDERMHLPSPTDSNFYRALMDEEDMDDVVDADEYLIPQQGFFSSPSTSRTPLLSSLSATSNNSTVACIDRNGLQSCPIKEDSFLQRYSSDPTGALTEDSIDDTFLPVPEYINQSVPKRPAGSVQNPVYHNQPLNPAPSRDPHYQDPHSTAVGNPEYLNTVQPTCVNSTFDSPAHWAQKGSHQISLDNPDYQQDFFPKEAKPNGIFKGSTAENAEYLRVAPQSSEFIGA
Source text: as §1, §8, §2, §9, §3, §4, §5, §10

Aurora-A = biological target: T4, Aurora-A (Homo sapiens, UniProt O14965); assay: Radiometric protein kinase assay, Aurora-A; assay type: biochemical; conditions: 1 μM ATP; read-out: Inhibitory activity (IC50:μM) Aurora-A
T4 construct: host or cells: Sf9 insect cells (baculovirus)
T4 sequence (O14965 1-403): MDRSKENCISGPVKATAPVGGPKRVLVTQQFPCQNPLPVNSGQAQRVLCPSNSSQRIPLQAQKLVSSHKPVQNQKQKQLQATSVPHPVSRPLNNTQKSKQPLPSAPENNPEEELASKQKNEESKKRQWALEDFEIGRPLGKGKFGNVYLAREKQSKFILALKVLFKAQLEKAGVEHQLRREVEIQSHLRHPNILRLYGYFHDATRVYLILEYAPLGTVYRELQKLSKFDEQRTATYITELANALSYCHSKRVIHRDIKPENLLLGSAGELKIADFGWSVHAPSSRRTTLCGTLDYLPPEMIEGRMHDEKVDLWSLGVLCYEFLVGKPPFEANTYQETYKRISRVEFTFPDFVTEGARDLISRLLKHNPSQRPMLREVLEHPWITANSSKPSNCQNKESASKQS
Source text: as §1, §8, §2, §9, §3, §4, §5, §10

| Compound | EC50 (SK-BR-3 tumor cells) [µM] | EC50 (HCC1954 tumor cells) [µM] | other results |
| --- | --- | --- | --- |
| C[C@@H]1C/C=C/CC/C=C/C(=O)Cc2c(Cl)c(O)cc(O)c2C(=O)O1 [pochonin D, reference compound] | – | – | IC50 (HSP90): 0.08 µM; inhibition in a panel of 24 kinase (panel of 24 kinase): no significant activity |
| O=C1OCC/C=C/CC/C=C/C(=NOCc2ccccc2)Cc2c(Cl)c(O)cc(O)c21 [2a-3] | 4.5 | 3 | – |
| O=C1/C=C/CCC2OC2C[C@H](c2ccccc2)OC(=O)c2c(O)cc(O)c(Cl)c2C1 (some centres unmarked) [A5] | – | – | IC50 (IGF1-R): 11 µM |
| CCOCOc1cc(OCOCC)c2c(c1Cl)CC(=O)C=CCCC=CC[C@@H](C)OC2=O | – | – | ring closure, yield of all isomers ([1]; from C=CCCC=CC(=O)Cc1c(Cl)c(OCOCC)cc(OCOCC)c1C(=O)O[C@H](C)CC=C): 94% |
| CCOCOc1cc2c(c(OCOCC)c1)C(=O)O[C@H](c1ccccc1)C/C=C/CC/C=C/C(=O)C2 [A-1] | – | – | IC50 (IGF1-R): 23 µM; IC50 (SRC): 11 µM; IC50 (EGF-R): 33 µM |
| O=C1OCC/C=C/CC/C=C/C(=NOCC(=O)N2CCNCC2)Cc2c(Cl)c(O)cc(O)c21 [2a-15] | > 10 | > 10 | – |
| O=C1OCC/C=C/CC/C=C/C(=NOCC(=O)N2CCCCCC2)Cc2c(Cl)c(O)cc(O)c21 [2a-11] | 0.31 | 0.52 | – |
| COC1CC/C=C/C[C@H](c2ccccc2)OC(=O)c2c(O)cc(O)c(Cl)c2CC(=O)C1 (some centres unmarked) [A2] | – | – | IC50 (SRC): 8 µM |
| CCOCOc1cc2c(c(OCOCC)c1)C(=O)O[C@H](C)CC=CCCC=CC(=O)C2 | – | – | ring closure, yield of all isomers ([1]; from C=CCCC=CC(=O)Cc1cc(OCOCC)cc(OCOCC)c1C(=O)O[C@H](C)CC=C, 2 steps): 40% |
| O=C1OCC/C=C\CC/C=C/C(=NOCC(=O)N2CCCCC2)Cc2c(Cl)c(O)cc(O)c21 [2a-5] | 2.5 | 9.5 | – |
| C[C@@H]1CC=CCC/C=C/C(=O)Cc2c(Cl)c(OCOCC[Si](C)(C)C)cc(OCOCC[Si](C)(C)C)c2C(=O)O1 | – | – | ring closure, yield of all isomers ([1]; from C=CCC/C=C/C(=O)Cc1c(Cl)c(OCOCC[Si](C)(C)C)cc(OCOCC[Si](C)(C)C)c1C(=O)O[C@H](C)CC=C, 12.0 h): 87% |
| CNC(=O)CO/N=C1/C=C/CC/C=C/CCOC(=O)c2c(O)cc(O)c(Cl)c2C1 [2a-8] | > 10 | > 10 | – |
| C[C@@H]1C/C=C/CC/C=C/C(=O)Cc2c(Cl)c(O)cc(O)c2C(=O)O1 [2a-14] | 2.8 | 1.2 | – |
| O=C(CON=C1/C=C/CC/C=C/CCOC(=O)c2c(O)cc(O)c(Cl)c2C1)NCCO [2a-4] | 7.5 | > 10 | – |
| CCOCOc1cc2c(c(OCOCC)c1)C(=O)OC(C)CC=CCCC=CC(=O)C2 (centres unmarked) [2-120, 2,4-Bis-ethoxymethoxy-7-methyl-7,8,11,12-tetrahydro-16H-6-oxa-benzocyclotetradecene-5,15-dione] | – | – | affinity for / inhibition of HSP90 (in words) (HSP90): no affinity |
| CCON=C1/C=C/CC/C=C/CCOC(=O)c2c(O)cc(O)c(Cl)c2C1 [2a-22] | 3.8 | 9.8 | – |
| C=CCC/C=C/C(Cc1c(Cl)c(O)cc(O)c1C(=O)OCCC=C)=NOCC(=O)N1CCCCC1 [2a-7] | > 10 | > 10 | – |
| COC1CC/C=C/CCOC(=O)c2c(O)cc(O)c(Cl)c2C/C(=N/OCC(=O)N2CCCCC2)C1 (centres unmarked) [2a-10] | > 10 | > 10 | – |
| O=C(CON=C1/C=C/CC/C=C/CCOC(=O)c2c(O)cc(O)c(Cl)c2C1)NC1CCCCC1 [2a-16] | 0.55 | 0.45 | – |
| O=C1Cc2c(Cl)c(O)cc(O)c2C(=O)O[C@H](c2ccccc2)C/C=C/CCC(Cl)C1 (some centres unmarked) [A3] | – | – | IC50 (Aurora-A): 12 µM |
| O=C1OCC/C=C/CC/C=C/C(=NOCC(=O)N2CCOCC2)Cc2c(Cl)c(O)cc(O)c21 [2a-18] | > 10 | > 10 | – |
| CCOCOc1cc(OCOCC)c2c(c1Cl)CC(=O)C=CCCC=CCC(C)OC2=O (centres unmarked) [2-112, 1-Chloro-2,4-bis-ethoxymethoxy-7-methyl-7,8,11,12-tetrahydro-16H-6-oxa-benzocyclotetradecene-5,15-dione] | – | – | affinity for / inhibition of HSP90 (in words) (HSP90): no affinity |
| C[C@@H]1CC=CCC/C=C/C(=O)Cc2c(Cl)c(O[Si](C)(C)C(C)(C)C)cc(O[Si](C)(C)C(C)(C)C)c2C(=O)O1 | – | – | ring closure, yield of all isomers ([1]; from C=CCC/C=C/C(=O)Cc1c(Cl)c(O[Si](C)(C)C(C)(C)C)cc(O[Si](C)(C)C(C)(C)C)c1C(=O)O[C@H](C)CC=C, 12.0 h): 87% |
| O=C(CON=C1/C=C/CC/C=C/CCOC(=O)c2c(O)cc(O)c(Cl)c2C1)NCc1ccccc1 [2a-17] | 3.5 | 8.5 | – |
| O=C1OCC/C=C/CCCC/C(=N/OCC(=O)N2CCCCC2)Cc2c(Cl)c(O)cc(O)c21 [2a-6] | > 10 | 5.2 | – |
| C[C@@H]1C/C=C/CC/C=C/C(=N/OCC(=O)N2CCCCC2)Cc2c(Cl)c(O)cc(O)c2C(=O)O1 [2a-9] | 0.45 | 0.89 | – |
